Assay results from ChEMBL document CHEMBL1201862, “PubChem BioAssay data set” (2004).
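Five concentrations, 48 hours, 96-well plates. GI50 is the concentration that inhibits growth by half.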 Calls of active or inactive are those of the source. Cut-off read from the data, not from the text of the source: active = GI50 up to about 1.1 µM and inactive = higher.

Key:
Experiment in all cases: DTP human tumour cell line panel, 48 h
A498 = test system: A498
A549 = test system: A549
CCRF-CEM = test system: CCRF-CEM
HCC 2998 = test system: HCC 2998
HCT-116 = test system: HCT-116
HCT-15 = test system: HCT-15
HOP-62 = test system: HOP-62
HT-29 = test system: HT-29
Hs-578T = test system: Hs-578T
IGROV-1 = test system: IGROV-1
KM12 = test system: KM12
MDA-MB-435 = test system: MDA-MB-435
MDA-N = test system: MDA-N
NCI-H522 = test system: NCI-H522
OVCAR-8 = test system: OVCAR-8
SK-MEL-5 = test system: SK-MEL-5
TK-10 = test system: TK-10
UACC-257 = test system: UACC-257
UO-31 = test system: UO-31

| Structure (SMILES) | GI50 (A498) | GI50 (A549) | GI50 (CCRF-CEM) | GI50 (HCC 2998) | GI50 (HCT-116) | GI50 (HCT-15) | GI50 (HOP-62) | GI50 (HT-29) | GI50 (Hs-578T) | GI50 (IGROV-1) | GI50 (KM12) | GI50 (MDA-MB-435) | GI50 (MDA-N) | GI50 (NCI-H522) | GI50 (OVCAR-8) | GI50 (SK-MEL-5) | GI50 (TK-10) | GI50 (UACC-257) | GI50 (UO-31) |
| --- | --- | --- | --- | --- | --- | --- | --- | --- | --- | --- | --- | --- | --- | --- | --- | --- | --- | --- | --- |
| Nc1nc2c(c(=O)[nH]1)N=C(COP(=O)(O)OP(=O)(O)O)CN2 | > 100 µM (inactive) | > 100 µM (inactive) | > 100 µM (inactive) | > 100 µM (inactive) | > 100 µM (inactive) | > 100 µM | > 100 µM (inactive) | > 100 µM (inactive) | > 100 µM (inactive) | > 100 µM (inactive) | > 100 µM (inactive) | > 100 µM (inactive) | > 100 µM (inactive) | > 100 µM (inactive) | > 100 µM (inactive) | > 100 µM (inactive) | > 100 µM (inactive) | > 100 µM (inactive) | > 100 µM (inactive) |
| CN1CN(c2ccccc2)C2(CCN(CCCSc3ccccc3NC(=O)/C=C/c3ccccc3)CC2)C1=O | 2.75 µM (inactive) | 6.93 µM (inactive) | 2.93 µM (inactive) | 4.84 µM (inactive) | 2.5 µM (inactive) | 6.92 µM | 2.83 µM (inactive) | 2.29 µM (inactive) | 3.41 µM (inactive) | 2.86 µM (inactive) | 4.59 µM (inactive) | 2.61 µM (inactive) | 2.57 µM (inactive) | 17.3 µM (inactive) | 6.19 µM (inactive) | 3.55 µM (inactive) | 8.39 µM (inactive) | 1.78 µM (inactive) | 2.99 µM (inactive) |
| Cc1nc(SCC(=O)Nc2ccc(Cl)cc2)c2sc(=S)n(-c3ccccc3)c2n1 | > 10 µM (inactive) | > 10 µM (inactive) | > 10 µM (inactive) | > 10 µM (inactive) | > 10 µM (inactive) | > 10 µM | > 10 µM (inactive) | > 10 µM (inactive) | > 10 µM (inactive) | > 10 µM (inactive) | > 10 µM (inactive) | > 10 µM (inactive) | > 10 µM (inactive) | > 10 µM (inactive) | > 10 µM (inactive) | > 10 µM (inactive) | > 10 µM (inactive) | > 10 µM (inactive) |  |
| CNC(=O)C(C)NC(=O)C(Cc1ccccc1)NC(=O)c1ccccc1 (stereo not drawn) | > 100 µM (inactive) | > 100 µM (inactive) | > 100 µM (inactive) | > 100 µM (inactive) | > 100 µM (inactive) | > 100 µM | > 100 µM (inactive) | > 100 µM (inactive) | > 100 µM (inactive) | > 100 µM (inactive) | > 100 µM (inactive) | > 100 µM (inactive) | > 100 µM (inactive) | > 100 µM (inactive) | > 100 µM (inactive) | > 100 µM (inactive) | > 100 µM (inactive) | > 100 µM (inactive) | > 100 µM (inactive) |
| CC(=O)N(C(C)=O)n1c(Cc2ccc(Cl)cc2)nn(C(C)=O)c1=O | > 100 µM (inactive) | > 100 µM (inactive) | > 100 µM (inactive) | > 100 µM (inactive) |  | > 100 µM | > 100 µM (inactive) | > 100 µM (inactive) | > 100 µM (inactive) | > 100 µM (inactive) | > 100 µM (inactive) | > 100 µM (inactive) | > 100 µM (inactive) | > 100 µM (inactive) | > 100 µM (inactive) | > 100 µM (inactive) | > 100 µM (inactive) |  | > 100 µM (inactive) |
| COc1ccc(SCc2cc(OC)c(OC)c(OC)c2)cc1OC | 40.9 µM (inactive) | 43.8 µM (inactive) | 64.9 µM (inactive) | 50.9 µM (inactive) | 61.7 µM (inactive) | 34 µM | > 100 µM (inactive) | 67.6 µM (inactive) | 54 µM (inactive) | 80.4 µM (inactive) | 37.5 µM (inactive) | 11.2 µM (inactive) | 24.5 µM (inactive) | 53.6 µM (inactive) | > 80.2 µM (inactive) | 15.8 µM (inactive) | > 91.4 µM (inactive) | 45.6 µM (inactive) | 27.9 µM (inactive) |
| CC1(C2(C)OC(=O)c3ccccc32)OC(=O)c2ccccc21 (stereo not drawn) | > 100 µM (inactive) | > 100 µM (inactive) |  | > 100 µM (inactive) | > 100 µM (inactive) | > 100 µM | > 100 µM (inactive) | > 100 µM (inactive) | 72.6 µM (inactive) | > 100 µM (inactive) | > 100 µM (inactive) | > 100 µM (inactive) | > 100 µM (inactive) | 35.9 µM (inactive) | > 100 µM (inactive) | > 100 µM (inactive) | > 100 µM (inactive) | > 100 µM (inactive) | > 100 µM (inactive) |
| Cc1ccc(S(=O)(=O)N/N=C2\CCCCCCCCCCC2CN(C)C)cc1 (stereo not drawn) | 17.7 µM (inactive) | 19.3 µM (inactive) | 15.7 µM (inactive) | 8.43 µM (inactive) | 14.7 µM (inactive) | 15 µM | 17.6 µM (inactive) | 15.5 µM (inactive) | 15 µM (inactive) | 16 µM (inactive) | 17.9 µM (inactive) | 14.7 µM (inactive) | 18.5 µM (inactive) | 14.3 µM (inactive) | 16.8 µM (inactive) | 11.2 µM (inactive) | 14.4 µM (inactive) | 15 µM (inactive) | 9.04 µM (inactive) |
| CCOC(=O)C(=CNC(=S)Nc1c(CC)cccc1CC)C(=O)OCC | > 100 µM (inactive) | > 100 µM (inactive) | > 100 µM (inactive) | > 100 µM (inactive) | > 100 µM (inactive) |  | > 100 µM (inactive) | > 100 µM (inactive) | 80.7 µM (inactive) | > 100 µM (inactive) | > 100 µM (inactive) | > 100 µM (inactive) | > 100 µM (inactive) | > 100 µM (inactive) | > 100 µM (inactive) | > 100 µM (inactive) | > 100 µM (inactive) | > 100 µM (inactive) | > 100 µM (inactive) |
| Cn1c2ccccc2c2cc(N3CCCC3)c3c(c21)C(=O)N(c1ccccc1)C3=O | > 100 µM (inactive) | > 100 µM (inactive) | > 100 µM (inactive) | > 100 µM (inactive) | > 100 µM (inactive) | > 100 µM | 60.8 µM (inactive) | > 100 µM (inactive) | 72.9 µM (inactive) | > 100 µM (inactive) | > 100 µM (inactive) | > 100 µM (inactive) | > 100 µM (inactive) | > 100 µM (inactive) | > 100 µM (inactive) | > 100 µM (inactive) | > 100 µM (inactive) | > 100 µM (inactive) | > 100 µM (inactive) |
| CC(CO)C1=CC(C#CCOCc2ccccc2)N(C(=O)Oc2ccccc2)c2ccccc21 (stereo not drawn) | 4.59 µM (inactive) | 9.98 µM (inactive) | 15 µM (inactive) | 25.5 µM (inactive) | 14.8 µM (inactive) | 5.04 µM | 29.3 µM (inactive) | 18.6 µM (inactive) | 14.3 µM (inactive) | 28.2 µM (inactive) | 14.9 µM (inactive) | 15.5 µM (inactive) | 21.3 µM (inactive) | 7.73 µM (inactive) | 30.5 µM (inactive) | 21.4 µM (inactive) | 48.1 µM (inactive) | 13.2 µM (inactive) | 26.4 µM (inactive) |
| C[N+](C)(CCNc1ccc(NCC[N+](C)(C)Cc2ccc([N+](=O)[O-])cc2)c2c1C(=O)c1ccccc1C2=O)Cc1ccc([N+](=O)[O-])cc1 | > 100 µM (inactive) | > 100 µM (inactive) | > 100 µM (inactive) | > 100 µM (inactive) | > 100 µM (inactive) | > 100 µM | > 100 µM (inactive) | > 100 µM (inactive) | > 100 µM (inactive) | > 100 µM (inactive) | > 100 µM (inactive) | > 100 µM (inactive) | > 100 µM (inactive) | > 100 µM (inactive) | > 100 µM (inactive) | > 100 µM (inactive) | > 100 µM (inactive) | > 100 µM (inactive) | > 100 µM (inactive) |
| Cn1ncc2c(Cl)ncnc21 | > 100 µM (inactive) | > 100 µM (inactive) |  | > 100 µM (inactive) | > 100 µM (inactive) | > 100 µM | > 100 µM (inactive) | > 100 µM (inactive) | > 100 µM (inactive) | > 100 µM (inactive) | > 100 µM (inactive) | > 100 µM (inactive) | > 100 µM (inactive) | > 100 µM (inactive) | > 100 µM (inactive) | > 100 µM (inactive) | > 100 µM (inactive) | > 100 µM (inactive) | > 100 µM (inactive) |
| COc1ccc(-c2cc(=O)c3c(O)c(OC)c(O)cc3o2)cc1O | 4.9 µM (inactive) | 6.4 µM (inactive) | 3.7 µM (inactive) | 6.12 µM (inactive) | 3.48 µM (inactive) | 1.9 µM | 6.9 µM (inactive) | 16 µM (inactive) | 3.08 µM (inactive) | 4.62 µM (inactive) | 3.18 µM (inactive) | 0.582 µM (active) | 0.406 µM (active) | 1.97 µM (inactive) | 9.55 µM (inactive) | 3.41 µM (inactive) | 68.2 µM (inactive) | 8.02 µM (inactive) | 6.27 µM (inactive) |
| COc1ccc(-c2cc(=O)c3c(OC)c(OC)c(OC)c(OC)c3o2)cc1OC [NOBILETIN] | 25.2 µM (inactive) | 42.8 µM (inactive) | 65.6 µM (inactive) | 32.7 µM (inactive) | 72.4 µM (inactive) | 26.5 µM | 44.7 µM (inactive) | 32.1 µM (inactive) | 21.1 µM (inactive) | 49.2 µM (inactive) |  | 45.1 µM (inactive) | 49.9 µM (inactive) | 28.6 µM (inactive) | 29.6 µM (inactive) | 18.6 µM (inactive) | 50.1 µM (inactive) | 33.5 µM (inactive) | 24.7 µM (inactive) |
